SMILES strings stand for the structures.

Series [1] concerns GFAP. As to the kind of experiment: Immunohistochemical quantification of GFAP (astrogliosis). The format is in vivo, mice. To be noted: 0.3 mg/Kg i.p. The protocol: The neuroprotective effect of the compounds, i.e. the ability thereof to protect cells from Aβ25-35 oligomer neurotoxicity and neurodegeneration, is also tested (FIG. 10). The test compounds are thus administered on the same day as the injection of the Aβ25-35 oligomers and are continued to be administered on a daily basis up to day 7 after the injection of the oligomers, at which time the mice are subjected to the YMT, PAT, MWT or ORT. The brain's anatomy is analysed and neuronal cells are counted by immunohistochemistry on mice sacrificed at D13. The biochemical analyses for the quantification of markers of oxidative stress and apoptosis were carried out at D16 on a group of mice that had been subjected to the WMT (FIG. 10).
They were previously anaesthetised by i.p. injection of 200 μL of a solution of ketamine (80 mg/Kg) and xylazine (10 mg/Kg), then the tissues were fixed by intracardiac perfusion of 50 mL of a saline solution followed by 50 mL of Antigenfix® fixative (Diapath). The samples were kept for a further 48 hours in the fixative at 4° C., and then the mouse brains were stored in a 30% sucrose solution in PBS, before being sliced.
Slices were taken of each area of the brain, in particular the cortex, the nucleus basalis magnocellularis and the hippocampus (i.e. between bregma +1.8 and bregma −2.8 according to the stereotaxic coordinates of the mouse brain, Paxinos et al., 2004). Serial coronal sections with a thickness of 25 μm were cut with a freezing microtome (Microm HM 450, Thermo Fisher) and stored at −20° C. in a cryoprotective solution. […]
Immunohistochemical labelling is carried out in a conventional manner. […] After rinsing with PBS, the sections were mounted in a mounting fluid (ProLong, ThermoFischer) and images of each section were taken with a confocal fluorescence microscope (Leica SPE) for different sub-regions of the hippocampus such as the stratum radiatum (Rad), the stratum moleculare (Mol), the polymorphic layer of the dentate gyrus (PoDG) and for the cortex, the lateral parietal association area (LPtA). […]

For series [2], the system named is non-intoxicated mice. Put plainly: Passive avoidance test, amnestic effect in non-intoxicated mice. To be noted: 10 mg/Kg i.p. Type of series: in vivo. The source says:
This test measures non-spatial (contextual) long-term memory. The apparatus used for this test was a box with two compartments (15×20×15 cm high), one illuminated with white PVC walls and the other in the dark with black PVC walls and a grid floor. A guillotine door separated the compartments. A 60 W lamp was positioned 40 cm above the box and illuminated the white compartment. Electric shocks (0.3 mA for 3 s) could be delivered to the grid floor using a generator (Lafayette Instruments, Lafayette, USA). The test comprised a training session and a test session. The guillotine door was closed during the training session. Each mouse was placed in the white compartment. After 5 seconds, the door was raised. When the mouse entered the darkened compartment and placed all four feet in contact with the grid floor, the door was closed and the electric shocks were delivered for 3 seconds. The time taken by the mouse to re-enter the darkened compartment (STL-Tg) and the number of vocalizations were recorded. The test session was conducted 24 hours after the training session. Each mouse was placed back into the illuminated white compartment. After 5 s the door was raised, the step-through latency (STL-R), i.e. the time it took the mouse to enter the darkened compartment, was measured. The maximum duration was 300 s. Mice with a STL-Tg>30 s or a STL-Tg and a STL-R<10 s were not considered for the test. […]

With `NC12CC3CC(C1)CC(CCF)(C3)C2` [FENM, 3-(2-fluoroethyl)adamantan-1-amine], in series [1] (all brain areas tested (Rad, Mol, PoDG, LPtA)), the “GFAP labelling (astrocytic response)” value was “significantly decreases the astrocytic and microglial response in all of the brain areas tested”. In series [2], the “Latency” value was determined as 183.0 ± 38.4 s.

Take `CC12CC3CC(C)(C1)CC(N)(C3)C2` [memantine, 3,5-Dimethyl-1-adamantanamine, reference compound]: the “GFAP labelling (astrogliosis)” value in series [1] (Mol) is on record as “no effect on astrogliosis in the Mol”. Also, the “GFAP labelling (astrocytic response)” value in series [1] (PoDG area) is recorded as “positive effect in the PoDG area”. In series [2], the “Latency” value was found to be 56.0 ± 31.1 s.

The record behind these values is patent US12611387B2, “Compound and composition for inducing neuroprotection” (REST THERAPEUTICS, priority 2020, dated 2026).
